# Assay results: patent US20150342853A1, “Topical Lightening Composition and Methods of Use Thereof” (Avon Products, Inc., priority 2014, published 2015)
# Assay: in vitro test of lightening of synthetic melanin (absorbance at 405 nm)
# Type: biochemical
# Settings: melanin absorbance at 405 nm relative to vehicle control, two weeks
# Protocol: Fabiana imbricata extract (having between 15,000 and 30,000 units/g of glucose oxidase activity) was examined for its ability to lighten melanin in an in vitro test. A solution of synthetic melanin at a concentration of 0.025% in dimethyl sulfoxide was prepared. 1 ml was added to each well of a 24-well plate. A 1% stock solution of Fabiana imbricata extract was prepared in phosphate-buffered saline and diluted serially at a ratio of 1:2 yielding 0.5%, 0.25% and 0.125% solutions of Fabiana imbricata extract. Solutions of glucose were prepared similarly. 10 microliters of each concentration of Fabiana imbricata extract was added along with 10 microliters of glucose to 1 ml of the melanin solution in each well of the microplate. Each concentration was tested in triplicate. Three wells received the phosphate-buffered saline as vehicle control. Hydrogen peroxide at 0.3, 0.03 and 0.003% was added to 3 wells each as positive control. The microplate was incubated at room temperature and treatments described above were repeated for a total of ten times over two weeks. At the end of the incubation period, melanin absorbance was measured at 405 nm using a spectrophotometer. Results are summarized in the table below as percent of melanin absorbance relative to vehicle control. A lower absorbance indicates lightening of melanin.
compound,measurement,setting,value
"OO [Example H2O2, Hydrogen peroxide]",% Relative Absorbance,0.003% H2O2 positive control,87.5%
same,% Relative Absorbance,0.03% H2O2 positive control,70.6%
same,% Relative Absorbance,0.3% H2O2 positive control,30.6%
